Results published in paper PMC7695847, “The structural basis of promiscuity in small multidrug resistance transporters” (Nature Communications, 2020).

Columns and labels:
Gdx-Clo = test system: T1, Gdx-Clo; assay: […]-Gdm+ uptake and SSM electrophysiology, proteoliposomes; assay type: biochemical, Clostridiales bacterium oral taxon 876; details: 20 µM 14C-Gdm+ or 1 mM (SSM); pH 7.5; labelled compound
T1 construct: gene HMPREF1982_00479; full-length; C-terminal His6 tag with LysC site, tag cleaved by LysC; expressed in E. coli C41(DE3); antiparallel homodimer

EmrE [1] = biological target: T2, EmrE (Escherichia coli, UniProt P23895); assay: […]-methyl viologen uptake into proteoliposomes; assay type: biochemical; details: 7 µM 14C-methyl viologen; pH 7.5; labelled compound
T2 construct: full-length; N-terminal His6 tag with thrombin site; expressed in E. coli; homodimer; reconstituted in proteoliposomes

EmrE [2] = biological target: T2, EmrE; assay: SSM electrophysiology, proteoliposomes; assay type: biochemical; details: 1 mM; pH 7.5; reference compound for normalisation

T2 sequence (P23895 whole entry): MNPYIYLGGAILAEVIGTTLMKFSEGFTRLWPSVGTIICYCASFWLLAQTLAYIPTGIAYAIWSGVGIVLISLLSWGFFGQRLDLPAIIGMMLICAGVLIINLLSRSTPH
T1 sequence (U2EQ00 entry or part of it): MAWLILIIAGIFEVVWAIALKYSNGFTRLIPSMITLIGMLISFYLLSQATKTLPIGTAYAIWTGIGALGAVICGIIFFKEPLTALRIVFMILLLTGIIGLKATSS

Structure (SMILES): N=C(N)N [Gdm^+]
- 14C-Gdm+ uptake and SSM electrophysiology, proteoliposomes (Gdx-Clo): Gdx-Clo transports Gdm^+, but not methyl viologen

Structure (SMILES): C[n+]1ccc(-c2cc[n+](C)cc2)cc1 [methyl viologen]
- 14C-methyl viologen uptake into proteoliposomes (EmrE [1]): EmrE transports methyl viologen, but not Gdm^+

Structure (SMILES): N=C(N)Nc1ccccc1 [phenylGdm^+]
- SSM electrophysiology, proteoliposomes (EmrE [2]): methyl-, ethyl-, and phenylGdm^+ evoked increasingly larger currents
